Assay results: patent US20250110108A1 (priority 2022, published 2025)

Settings: in vivo

Substance | concentration range in urine [ng/mL] | median concentration in urine [µg/L] | share of ΣAs in urine
Arsenic acid [As^V] | 0 to 12.1 | 1.12 | 
Arsenious acid [As^III] | 2.13 to 101 | 13.8 | 3.8-36.9%
